Results as given in patent US20140213513A1 (Sanofi, priority 2012, published 2014).
*1 amine or outer side, *2 acyl side, *3 side chain or, on linkers, in order; H or OH if unused. Where a SMILES comes first, the peptide text is derived from it. Side-chain parts run from the residue outwards. [ ]: non-standard residue; d: D form. The star is where a group is joined. γGlu = O=C(O)[C@H](CCC(=O)[*:2])N[*:1]; Stearoyl = CCCCCCCCCCCCCCCCCC(=O)*; Palmitoyl = CCCCCCCCCCCCCCCC(=O)*; Aib = CC(C)(N)C(=O)O

Legend:
Type in all cases: cell-based
Settings in all cases: Table 7; cAMP formation
[1] = biological target: T1, human GLP-1 receptor (hGLP-1 R) (Homo sapiens, UniProt P43220); assay: cAMP response of HEK-293 cells stably expressing human GLP-1 receptor (HTRF)
T1 construct: expressed in transfected cells
T1 sequence (P43220 24-463): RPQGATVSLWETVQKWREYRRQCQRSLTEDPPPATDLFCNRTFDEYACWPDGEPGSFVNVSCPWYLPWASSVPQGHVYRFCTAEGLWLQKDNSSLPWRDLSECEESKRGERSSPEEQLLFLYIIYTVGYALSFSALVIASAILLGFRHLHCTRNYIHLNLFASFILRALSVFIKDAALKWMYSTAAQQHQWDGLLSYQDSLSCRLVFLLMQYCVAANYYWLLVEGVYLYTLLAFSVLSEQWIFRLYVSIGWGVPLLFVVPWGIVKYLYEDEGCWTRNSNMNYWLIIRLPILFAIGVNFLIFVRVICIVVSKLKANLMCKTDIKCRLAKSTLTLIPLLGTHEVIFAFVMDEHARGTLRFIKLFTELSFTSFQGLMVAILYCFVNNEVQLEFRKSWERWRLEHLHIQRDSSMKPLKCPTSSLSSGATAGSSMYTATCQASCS
Summary of the method: (§1)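 HEK-293 cells stably expressing the receptor were resuspended at 400000 cells/ml in HBSS/20 mM HEPES/0.1% BSA buffer with 2 mM IBMX. Cells were stimulated with compound for 30 min at room temperature. Intracellular cAMP was measured by HTRF.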

[2] = biological target: T2, human GIP receptor (hGIP R) (Homo sapiens, UniProt P48546); assay: cAMP response of HEK-293 cells stably expressing human GIP receptor (HTRF)
T2 construct: expressed in transfected cells
T2 sequence (P48546 22-466): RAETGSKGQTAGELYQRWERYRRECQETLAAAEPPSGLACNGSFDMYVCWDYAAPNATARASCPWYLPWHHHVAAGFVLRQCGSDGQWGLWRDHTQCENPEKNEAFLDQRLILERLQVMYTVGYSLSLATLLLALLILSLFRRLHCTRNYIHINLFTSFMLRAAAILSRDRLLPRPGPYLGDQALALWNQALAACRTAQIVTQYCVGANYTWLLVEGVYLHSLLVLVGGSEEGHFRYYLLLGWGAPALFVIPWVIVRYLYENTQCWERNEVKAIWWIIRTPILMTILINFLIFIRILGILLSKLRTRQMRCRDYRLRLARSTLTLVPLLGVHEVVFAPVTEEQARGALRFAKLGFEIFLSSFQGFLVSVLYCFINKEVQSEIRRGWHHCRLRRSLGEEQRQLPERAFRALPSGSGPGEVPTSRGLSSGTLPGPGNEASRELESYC
Summary of the method: as §1

[3] = biological target: T3, human glucagon receptor (hGLUC R) (Homo sapiens, UniProt P47871); assay: cAMP response of HEK-293 cells stably expressing human glucagon receptor (HTRF)
T3 construct: expressed in transfected cells
T3 sequence (P47871 26-477): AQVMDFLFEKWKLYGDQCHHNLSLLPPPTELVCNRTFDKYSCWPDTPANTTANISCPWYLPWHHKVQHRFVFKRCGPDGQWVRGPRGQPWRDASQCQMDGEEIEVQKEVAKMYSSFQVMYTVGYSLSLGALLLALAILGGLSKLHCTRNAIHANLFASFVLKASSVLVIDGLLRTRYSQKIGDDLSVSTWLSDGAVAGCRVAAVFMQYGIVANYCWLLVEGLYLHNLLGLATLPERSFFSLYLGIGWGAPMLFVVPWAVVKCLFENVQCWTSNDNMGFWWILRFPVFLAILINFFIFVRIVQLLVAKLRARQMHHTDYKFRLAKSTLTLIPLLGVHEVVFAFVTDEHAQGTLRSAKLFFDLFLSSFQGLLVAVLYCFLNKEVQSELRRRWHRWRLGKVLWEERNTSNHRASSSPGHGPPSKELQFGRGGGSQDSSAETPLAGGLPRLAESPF
Summary of the method: as §1

| Compound | EC50 [1] [pM] | EC50 [2] [pM] | EC50 [3] [pM] |
| --- | --- | --- | --- |
| CCCCCCCCCCCCCCCC(=O)NCCCC[C@H](NC(=O)[C@H](CCC(N)=O)NC(=O)[C@@H](NC(=O)[C@H](CO)NC(=O)[C@H](CC(C)C)NC(=O)[C@H](CC(=O)O)NC(=O)[C@H](CO)NC(=O)[C@@H](NC(=O)[C@H](Cc1ccccc1)NC(=O)[C@@H](NC(=O)CNC(=O)[C@H](CCC(N)=O)NC(=O)C(C)(C)NC(=O)[C@@H](N)Cc1ccc(O)cc1)[C@@H](C)O)[C@@H](C)O)[C@@H](C)CC)C(=O)N[C@@H](CCC(=O)O)C(=O)N[C@@H](CCC(N)=O)C(=O)N[C@@H](CCCNC(=N)N)C(=O)N[C@@H](C)C(=O)N[C@@H](C)C(=O)NC(C)(C)C(=O)N[C@@H](CCC(=O)O)C(=O)N[C@@H](Cc1ccccc1)C(=O)N[C@H](C(=O)N[C@@H](CCC(=O)O)C(=O)N[C@@H](Cc1c[nH]c2ccccc12)C(=O)N[C@@H](CC(C)C)C(=O)N[C@@H](CCCCN)C(=O)N[C@@H](CC(N)=O)C(=O)N[C@H](C(=O)NCC(=O)N1CCC[C@H]1C(=O)N[C@@H](CO)C(=O)N[C@@H](CO)C(=O)NCC(=O)N[C@@H](C)C(=O)N1CCC[C@H]1C(=O)N1CCC[C@H]1C(=O)N1CCC[C@H]1C(=O)N[C@@H](CO)C(N)=O)[C@@H](C)O)[C@@H](C)CC [SEQ ID NO: 21, Y-Aib-Q-G-T-F-T-S-D-L-S-I-Q-K(x53)-E-Q-R-A-A-Aib-E-F-I-E-W-L-K-N-T-G-P-S-S-G-A-P-P-P-S-NH2] (H-Y[Aib]QGTFTSDLSIQK(Palmitoyl)EQRAA[Aib]EFIEWLKNTGPSSGAPPPS-NH2) | 37 | 189 | 674 |
| CCCCCCCCCCCCCCCC(=O)N[C@@H](CCC(=O)NCCCC[C@H](NC(=O)[C@H](CCC(N)=O)NC(=O)[C@@H](NC(=O)[C@H](CO)NC(=O)[C@H](CC(C)C)NC(=O)[C@H](CC(=O)O)NC(=O)[C@H](CO)NC(=O)[C@@H](NC(=O)[C@H](Cc1ccccc1)NC(=O)[C@@H](NC(=O)CNC(=O)[C@H](CCC(N)=O)NC(=O)C(C)(C)NC(=O)[C@@H](N)Cc1ccc(O)cc1)[C@@H](C)O)[C@@H](C)O)[C@@H](C)CC)C(=O)N[C@@H](CC(=O)O)C(=O)N[C@@H](CO)C(=O)N[C@@H](CCCNC(=N)N)C(=O)N[C@@H](C)C(=O)N[C@@H](CCC(N)=O)C(=O)N[C@@H](CCC(N)=O)C(=O)N[C@@H](CC(=O)O)C(=O)N[C@@H](Cc1ccccc1)C(=O)N[C@H](C(=O)N[C@@H](CCC(=O)O)C(=O)N[C@@H](Cc1c[nH]c2ccccc12)C(=O)N[C@@H](CC(C)C)C(=O)N[C@@H](CCCCN)C(=O)N[C@@H](C)C(=O)NCC(=O)NCC(=O)N1CCC[C@H]1C(=O)N[C@@H](CO)C(=O)N[C@@H](CO)C(=O)NCC(=O)N[C@@H](C)C(=O)N1CCC[C@H]1C(=O)N1CCC[C@H]1C(=O)N1CCC[C@H]1C(=O)N[C@@H](CO)C(N)=O)[C@@H](C)CC)C(=O)O [SEQ ID NO: 51, Y-Aib-Q-G-T-F-T-S-D-L-S-I-Q-K(yE-x53)-DSRAQQDFIEWLKAGGPSSGAPPPS-NH2] (H-Y[Aib]QGTFTSDLSIQK([γGlu-Palmitoyl])DSRAQQDFIEWLKAGGPSSGAPPPS-NH2) | 4.2 | 6.3 | 571 |
| CCCCCCCCCCCCCCCC(=O)N[C@@H](CCC(=O)NCCCC[C@H](NC(=O)[C@H](CCC(N)=O)NC(=O)[C@@H](NC(=O)[C@H](CO)NC(=O)[C@H](CC(C)C)NC(=O)[C@H](CC(=O)O)NC(=O)[C@H](CO)NC(=O)[C@@H](NC(=O)[C@H](Cc1ccccc1)NC(=O)[C@@H](NC(=O)CNC(=O)[C@H](CCC(N)=O)NC(=O)C(C)(C)NC(=O)[C@@H](N)Cc1ccc(O)cc1)[C@@H](C)O)[C@@H](C)O)[C@@H](C)CC)C(=O)N[C@@H](CC(=O)O)C(=O)N[C@@H](CO)C(=O)N[C@@H](CCC(=O)O)C(=O)N[C@@H](C)C(=O)N[C@@H](C)C(=O)N[C@@H](CCC(N)=O)C(=O)N[C@@H](CC(=O)O)C(=O)N[C@@H](Cc1ccccc1)C(=O)N[C@H](C(=O)N[C@@H](CCC(=O)O)C(=O)N[C@@H](Cc1c[nH]c2ccccc12)C(=O)N[C@@H](CC(C)C)C(=O)N[C@@H](CCCCN)C(=O)N[C@@H](C)C(=O)NCC(=O)NCC(=O)N1CCC[C@H]1C(=O)N[C@@H](CO)C(=O)N[C@@H](CO)C(=O)NCC(=O)N[C@@H](C)C(=O)N1CCC[C@H]1C(=O)N1CCC[C@H]1C(=O)N1CCC[C@H]1C(=O)N[C@@H](CO)C(N)=O)[C@@H](C)CC)C(=O)O [SEQ ID NO: 48, Y-Aib-Q-G-T-F-T-S-D-L-S-I-Q-K(yE-x53)-DSEAAQDFIEWLKAGGPSSGAPPPS-NH2] (H-Y[Aib]QGTFTSDLSIQK([γGlu-Palmitoyl])DSEAAQDFIEWLKAGGPSSGAPPPS-NH2) | 10.1 | 15.8 | 478 |
| CCCCCCCCCCCCCCCCCC(=O)N[C@@H](CCC(=O)NCCCC[C@H](NC(=O)[C@H](CCC(N)=O)NC(=O)[C@@H](NC(=O)[C@H](CO)NC(=O)[C@H](CC(C)C)NC(=O)[C@H](CC(=O)O)NC(=O)[C@H](CO)NC(=O)[C@@H](NC(=O)[C@H](Cc1ccccc1)NC(=O)[C@@H](NC(=O)CNC(=O)[C@H](CCC(=O)O)NC(=O)C(C)(C)NC(=O)[C@@H](N)Cc1ccc(O)cc1)[C@@H](C)O)[C@@H](C)O)[C@@H](C)CC)C(=O)N[C@@H](CCC(=O)O)C(=O)N[C@@H](CO)C(=O)N[C@@H](CCCCN)C(=O)N[C@@H](C)C(=O)N[C@@H](C)C(=O)NC(C)(C)C(=O)N[C@@H](CCC(=O)O)C(=O)N[C@@H](Cc1ccccc1)C(=O)N[C@H](C(=O)N[C@@H](CCC(=O)O)C(=O)N[C@@H](Cc1c[nH]c2ccccc12)C(=O)N[C@@H](CC(C)C)C(=O)N[C@@H](CCCCN)C(=O)N[C@@H](C)C(=O)NCC(=O)NCC(=O)N1CCC[C@H]1C(=O)N[C@@H](CO)C(=O)N[C@@H](CO)C(=O)NCC(=O)N[C@@H](C)C(=O)N1CCC[C@H]1C(=O)N1CCC[C@H]1C(=O)N1CCC[C@H]1C(=O)N[C@@H](CO)C(=O)N[C@@H](CCCCN)C(N)=O)[C@@H](C)CC)C(=O)O [SEQ ID NO: 16, Y-Aib-E-G-T-F-T-S-D-L-S-I-Q-K(yE-x70)-E-S-K-A-A-Aib-EFIEWLKAGGPSSGAPPPSK-NH2] (H-Y[Aib]EGTFTSDLSIQK([γGlu-Stearoyl])ESKAA[Aib]EFIEWLKAGGPSSGAPPPSK-NH2) | 7 | 15.6 | 17000 |
| CCCCCCCCCCCCCCCC(=O)N[C@@H](CCC(=O)NCCCC[C@H](NC(=O)[C@H](CCC(N)=O)NC(=O)[C@@H](NC(=O)[C@H](CO)NC(=O)[C@H](CC(C)C)NC(=O)[C@H](CC(=O)O)NC(=O)[C@H](CO)NC(=O)[C@@H](NC(=O)[C@H](Cc1ccccc1)NC(=O)[C@@H](NC(=O)CNC(=O)[C@H](CCC(N)=O)NC(=O)C(C)(C)NC(=O)[C@@H](N)Cc1ccc(O)cc1)[C@@H](C)O)[C@@H](C)O)[C@@H](C)CC)C(=O)N[C@@H](CC(=O)O)C(=O)N[C@@H](CO)C(=O)N[C@@H](CCCNC(=N)N)C(=O)N[C@@H](C)C(=O)N[C@@H](C)C(=O)N[C@@H](CCC(N)=O)C(=O)N[C@@H](CC(=O)O)C(=O)N[C@@H](Cc1ccccc1)C(=O)N[C@H](C(=O)N[C@@H](CCC(=O)O)C(=O)N[C@@H](Cc1c[nH]c2ccccc12)C(=O)N[C@@H](CC(C)C)C(=O)N[C@@H](CCCCN)C(=O)N[C@@H](CCCCN)C(=O)NCC(=O)NCC(=O)N1CCC[C@H]1C(=O)N[C@@H](CO)C(=O)N[C@@H](CO)C(=O)NCC(=O)N[C@@H](C)C(=O)N1CCC[C@H]1C(=O)N1CCC[C@H]1C(=O)N1CCC[C@H]1C(=O)N[C@@H](CO)C(N)=O)[C@@H](C)CC)C(=O)O [SEQ ID NO: 43, Y-Aib-Q-G-T-F-T-S-D-L-S-I-Q-K(yE-x53)-DSRAAQDFIEWLKKGGPSSGAPPPS-NH2] (H-Y[Aib]QGTFTSDLSIQK([γGlu-Palmitoyl])DSRAAQDFIEWLKKGGPSSGAPPPS-NH2) | 7 | 48.2 | 114 |
| CCCCCCCCCCCCCCCC(=O)N[C@@H](CCC(=O)NCCCC[C@H](NC(=O)[C@H](CCC(N)=O)NC(=O)[C@@H](NC(=O)[C@H](CO)NC(=O)[C@H](CC(C)C)NC(=O)[C@H](CC(=O)O)NC(=O)[C@H](CO)NC(=O)[C@@H](NC(=O)[C@H](Cc1ccccc1)NC(=O)[C@@H](NC(=O)CNC(=O)[C@H](CCC(N)=O)NC(=O)C(C)(C)NC(=O)[C@@H](N)Cc1ccc(O)cc1)[C@@H](C)O)[C@@H](C)O)[C@@H](C)CC)C(=O)N[C@@H](CCC(=O)O)C(=O)N[C@@H](CCCCN)C(=O)N[C@@H](CC(C)C)C(=O)N[C@@H](C)C(=O)N[C@@H](C)C(=O)NC(C)(C)C(=O)N[C@@H](CCC(=O)O)C(=O)N[C@@H](Cc1ccccc1)C(=O)N[C@H](C(=O)N[C@@H](CCC(=O)O)C(=O)N[C@@H](Cc1c[nH]c2ccccc12)C(=O)N[C@@H](CC(C)C)C(=O)N[C@@H](CCCCN)C(=O)N[C@@H](CC(N)=O)C(=O)N[C@H](C(=O)NCC(=O)N1CCC[C@H]1C(=O)N[C@@H](CO)C(=O)N[C@@H](CO)C(=O)NCC(=O)N[C@@H](C)C(=O)N1CCC[C@H]1C(=O)N1CCC[C@H]1C(=O)N1CCC[C@H]1C(=O)N[C@@H](CO)C(N)=O)[C@@H](C)O)[C@@H](C)CC)C(=O)O [SEQ ID NO: 8, Y-Aib-Q-G-T-F-T-S-D-L-S-I-Q-K(yE-x53)-E-K-L-A-A-Aib-E-F-I-E-W-L-K-N-T-G-P-S-S-G-A-P-P-P-S-NH2] (H-Y[Aib]QGTFTSDLSIQK([γGlu-Palmitoyl])EKLAA[Aib]EFIEWLKNTGPSSGAPPPS-NH2) | 8.7 | 26 | 803 |
